Three molecules from patent US11135234B2, “Effective aminoglycoside antibiotic for multidrug-resistant bacteria” (MICROBIAL CHEMISTRY RESEARCH FOUNDATION, priority 2015, dated 2021) can be followed below.

One experiment deals with P. aeruginosa PAO1/GN315. Kind of experiment: MIC, agar plate dilution method, P. aeruginosa PAO1/GN315. Format: cell-based, Pseudomonas aeruginosa. Particulars: P. aeruginosa PAO1/GN315, AMK-resistant. The procedure, abridged:
(§1)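 Read-out is the lowest compound concentration inhibiting growth (MIC, μg/mL), obtained by the agar plate dilution procedure of the Japan Society of Chemotherapy.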

For experiment [1], the system named is K. pneumoniae ATCC BAA-1705. In words: MIC, agar plate dilution method, K. pneumoniae ATCC BAA-1705. Format: cell-based, Klebsiella pneumoniae. Particulars: K. pneumoniae ATCC BAA-1705, KPC-producing strain. The essentials: as §1
The subject of a further experiment is P. aeruginosa MSC01035. In words: MIC, agar plate dilution method, P. aeruginosa MSC01035. Format: cell-based, Pseudomonas aeruginosa. The conditions noted are these: P. aeruginosa MSC01035, ABK-resistant. The procedure, abridged:
as §1

A further experiment has as its system S. aureus MF490. In words: MIC, agar plate dilution method, S. aureus MF490. Format: cell-based, Staphylococcus aureus. Particulars: S. aureus MF490, MRSA. The procedure, abridged:
as §1

The next experiment has as its system S. aureus RN4220. In words: MIC, agar plate dilution method, S. aureus RN4220. The experiment is classed as cell-based, Staphylococcus aureus. Particulars: S. aureus RN4220, Sensitive bacterium. The essentials:
as §1

Experiment [2] has as its system A. baumannii ATCC BAA-1710. Kind of experiment: MIC, agar plate dilution method, A. baumannii ATCC BAA-1710. Format: cell-based, Acinetobacter baumannii. Particulars: A. baumannii ATCC BAA-1710, MDRA. The procedure, abridged:
as §1

The test system of a further experiment is S. marcescens TH-0447. In words: MIC, agar plate dilution method, S. marcescens TH-0447. Format: cell-based, Serratia marcescens. The conditions noted are these: S. marcescens TH-0447, AMK-resistant. The essentials: as §1
A further experiment concerns E. coli JM109/pMW218. Kind of experiment: MIC, agar plate dilution method, E. coli JM109/pMW218. The conditions noted are these: E. coli JM109/pMW218, Sensitive bacterium. Format: cell-based, Escherichia coli. The essentials: as §1
In experiment [3] the test system is K. pneumoniae ATCC BAA-2146. Kind of experiment: MIC, agar plate dilution method, K. pneumoniae ATCC BAA-2146. Format: cell-based, Klebsiella pneumoniae. The conditions noted are these: K. pneumoniae ATCC BAA-2146, NDM-producing strain. The procedure, abridged:
as §1

For the next experiment, the system named is E. faecium ATCC19434. Kind of experiment: MIC, agar plate dilution method, E. faecium ATCC19434. Format: cell-based, Enterococcus faecium. Particulars: E. faecium ATCC19434. The procedure, abridged: as §1
A further experiment deals with S. marcescens GN6944. Kind of experiment: MIC, agar plate dilution method, S. marcescens GN6944. Format: cell-based, Serratia marcescens. Particulars: S. marcescens GN6944, GM-resistant. The procedure, abridged: as §1
For a further experiment, the system named is P. aeruginosa PAO1. Kind of experiment: MIC, agar plate dilution method, P. aeruginosa PAO1. Format: cell-based, Pseudomonas aeruginosa. Particulars: P. aeruginosa PAO1, Sensitive bacterium. The procedure, abridged: as §1
The next experiment has as its system P. aeruginosa MSC17707. In words: MIC, agar plate dilution method, P. aeruginosa MSC17707. Format: cell-based, Pseudomonas aeruginosa. The conditions noted are these: P. aeruginosa MSC17707, AMK-resistant. The procedure, abridged:
as §1

The subject of the next experiment is S. aureus RN4220/pMS520. In words: MIC, agar plate dilution method, S. aureus RN4220/pMS520. Format: cell-based, Staphylococcus aureus. Particulars: S. aureus RN4220/pMS520, MRSA. The procedure, abridged: as §1

Each structure is given as a SMILES string. Converted amounts (≈) assume the structure as drawn.

`CN[C@@H]1[C@@H](O[C@H]2O[C@H](CO)[C@@H](N)C[C@H]2O)O[C@H]2C[C@@H](N)[C@@H](O[C@@H]3[C@@H](N)C[C@@H](N)C[C@@H]3O)O[C@@H]2[C@@H]1O` [Compound N5, 6,3″-dideoxy-5-epiapramycin]: the “minimal inhibitory concentration (MIC)” value amounted to 4 µg/mL (≈ 7.88 µM) in the experiment on P. aeruginosa PAO1/GN315; 2 µg/mL (≈ 3.94 µM) in [1]; 8 µg/mL (≈ 15.8 µM) with P. aeruginosa MSC01035; 4 µg/mL (≈ 7.88 µM) in the experiment on S. aureus MF490; 2 µg/mL (≈ 3.94 µM) in the experiment on S. aureus RN4220; 8 µg/mL (≈ 15.8 µM) in experiment [2]. In addition, the “minimal inhibitory concentration (MIC)” value stood at 8 µg/mL (≈ 15.8 µM) with S. marcescens TH-0447; 1 µg/mL (≈ 1.97 µM) with E. coli JM109/pMW218; 2 µg/mL (≈ 3.94 µM) in experiment [3]; 8 µg/mL (≈ 15.8 µM) with E. faecium ATCC19434; 4 µg/mL (≈ 7.88 µM) in the experiment on S. marcescens GN6944; 4 µg/mL (≈ 7.88 µM) with P. aeruginosa PAO1. In addition, the “minimal inhibitory concentration (MIC)” value in the experiment on P. aeruginosa MSC17707 turned out to be 8 µg/mL (≈ 15.8 µM); with S. aureus RN4220/pMS520, 2 µg/mL (≈ 3.94 µM).

As for `CNC1C(OC2OC(CO)C(N)CC2O)OC2CC(N)C(OC3CCC(N)CC3N)OC2C1O` (stereo not drawn) [Compound N7, 5,6,3″-trideoxyapramycin], the “minimal inhibitory concentration (MIC)” value in the experiment with P. aeruginosa PAO1/GN315 was determined as 4 µg/mL (≈ 8.14 µM); in experiment [1], 1 µg/mL (≈ 2.03 µM); with P. aeruginosa MSC01035, 8 µg/mL (≈ 16.3 µM); with S. aureus MF490, 8 µg/mL (≈ 16.3 µM); in the experiment on S. aureus RN4220, 2 µg/mL (≈ 4.07 µM); in experiment [2] it was 8 µg/mL (≈ 16.3 µM). Also, the “minimal inhibitory concentration (MIC)” value is 8 µg/mL (≈ 16.3 µM) in the experiment on S. marcescens TH-0447; 1 µg/mL (≈ 2.03 µM) with E. coli JM109/pMW218; 1 µg/mL (≈ 2.03 µM) in [3]; 16 µg/mL (≈ 32.5 µM) in the experiment with E. faecium ATCC19434; 4 µg/mL (≈ 8.14 µM) with S. marcescens GN6944; 4 µg/mL (≈ 8.14 µM) with P. aeruginosa PAO1. The “minimal inhibitory concentration (MIC)” value is 8 µg/mL (≈ 16.3 µM) in the experiment on P. aeruginosa MSC17707 and 2 µg/mL (≈ 4.07 µM) in the experiment with S. aureus RN4220/pMS520.

For `CNC1C(OC2OC(CO)C(N)CC2O)OC2CC(N)C(OC3C(N)CC(N)C(O)C3N)OC2C1O` (stereo not drawn) [Compound N9, 5-amino-5,3″-dideoxy-5-epiapramycin], the “minimal inhibitory concentration (MIC)” value in the experiment on P. aeruginosa PAO1/GN315 is 4 µg/mL (≈ 7.65 µM); in experiment [1] it was 2 µg/mL (≈ 3.83 µM); in the experiment on P. aeruginosa MSC01035, 8 µg/mL (≈ 15.3 µM); in the experiment on S. aureus MF490 it was 8 µg/mL (≈ 15.3 µM); in the experiment on S. aureus RN4220, 2 µg/mL (≈ 3.83 µM); in [2] it was 8 µg/mL (≈ 15.3 µM). Besides, the “minimal inhibitory concentration (MIC)” value with S. marcescens TH-0447 was determined as 8 µg/mL (≈ 15.3 µM); with E. coli JM109/pMW218, 1 µg/mL (≈ 1.91 µM); in experiment [3], 1 µg/mL (≈ 1.91 µM); with E. faecium ATCC19434 it was 16 µg/mL (≈ 30.6 µM); in the experiment with S. marcescens GN6944 it was 8 µg/mL (≈ 15.3 µM); in the experiment with P. aeruginosa PAO1 it was 4 µg/mL (≈ 7.65 µM). Moreover, the “minimal inhibitory concentration (MIC)” value was 8 µg/mL (≈ 15.3 µM) with P. aeruginosa MSC17707 and 2 µg/mL (≈ 3.83 µM) in the experiment on S. aureus RN4220/pMS520.
